Where two headings read alike, the source gives them in different places.
Assays:
[1] = tested on: HepG2 cells; test: HepG2 cytotoxicity counter-screen; conditions: for Tox50: cytotoxic activity against HepG2 cells; for Mean TOX: mean of the HepG2 TOX50 values
[2] = tested on: P. falciparum female gametocytes; test: P. falciparum Dual Gamete Formation Assay (PfDGFA), female readout (Pfs25-positive female gametes); assay type: cell-based, Plasmodium falciparum NF54; conditions: for Selectivity ratio F: HepG2 Tox50 versus female IC50; for HitlevelF: number of replicates with >50% inhibition in the female readout
Outline: (§1)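 Read-outs are automated image counts of exflagellation centres (brightfield, 10 frames over 1 s) and Pfs25-positive female gametes (Cy3 fluorescence).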

[3] = tested on: P. falciparum male gametocytes; test: P. falciparum Dual Gamete Formation Assay (PfDGFA), male readout (exflagellation); assay type: cell-based, Plasmodium falciparum NF54; conditions: for Selectivity Ratio M: HepG2 Tox50 versus male IC50; for HitlevelM: number of replicates with >50% inhibition in the male readout
Outline: as §1

[4] = PfDGFA at 2µM, 24h preincubation with gametocytes, average of replicates
[5] = PfDGFA at 2µM, 24h preincubation with gametocytes, replicate R1
[6] = PfDGFA at 2µM, 24h preincubation with gametocytes, replicate R3
[7] = PfDGFA at 2µM, 24h preincubation with gametocytes, replicate R4
[8] = PfDGFA, 24 h incubation with gametocytes before induction, female gamete readout, read-out: Female IC50
[9] = PfDGFA, 24 h incubation with gametocytes before induction, exflagellation readout, read-out: Male IC50
[10] = this study, read-out: Pf DGFA IC50 MALE
[11] = Plasmodium falciparum, PfDGFA at 2µM, 24h preincubation with gametocytes, average of replicates, read-out: Average inhibition female (%)
[12] = Plasmodium falciparum, PfDGFA at 2µM, 24h preincubation with gametocytes, replicate R1, read-out: % inhibition female (individual replicates) R1
[13] = Plasmodium falciparum, PfDGFA at 2µM, 24h preincubation with gametocytes, replicate R2, read-out: % inhibition female (individual replicates) R2
[14] = Plasmodium falciparum, PfDGFA at 2µM, 24h preincubation with gametocytes, replicate R3, read-out: % inhibition female (individual replicates) R3
[15] = Plasmodium falciparum, PfDGFA at 2µM, 24h preincubation with gametocytes, replicate R4, read-out: % inhibition female (individual replicates) R4
[16] = Plasmodium falciparum, PfDGFA, 24 h incubation with gametocytes before induction, female gamete readout, read-out: Female IC50
[17] = Plasmodium falciparum, PfDGFA at 2µM, 24h preincubation with gametocytes, average of replicates, read-out: Average inhibition male (%)
[18] = Plasmodium falciparum, PfDGFA at 2µM, 24h preincubation with gametocytes, replicate R1, read-out: % inhibition male (individual replicates) R1
[19] = Plasmodium falciparum, PfDGFA at 2µM, 24h preincubation with gametocytes, replicate R2, read-out: % inhibition male (individual replicates) R2
[20] = Plasmodium falciparum, PfDGFA at 2µM, 24h preincubation with gametocytes, replicate R3, read-out: % inhibition male (individual replicates) R3
[21] = Plasmodium falciparum, PfDGFA at 2µM, 24h preincubation with gametocytes, replicate R4, read-out: % inhibition male (individual replicates) R4
[22] = Plasmodium falciparum, PfDGFA, 24 h incubation with gametocytes before induction, exflagellation readout, read-out: Male IC50
[23] = 2µM, 24h preincubation with gametocytes, average of replicates
[24] = 2µM, 24h preincubation with gametocytes, replicate R1
[25] = 2µM, 24h preincubation with gametocytes, replicate R3
[26] = 2µM, 24h preincubation with gametocytes, replicate R4

SMILES: CCOc1cc(CNCCCCCCNCc2cc(OCC)c(OCC)c3ccccc23)c2ccccc2c1OCC.CS(=O)(=O)O [TCMDC-137939]
- Tox50 [1]: 2.02 µM
- Selectivity ratio F [2]: 0.94
- Average inhibition female (%) [2, 4]: 45.9%
- % inhibition female (individual replicates) R1 [2, 5]: 31.3%
- % inhibition female (individual replicates) R3 [2, 6]: 12.7%
- % inhibition female (individual replicates) R4 [2, 7]: 67.3%
- IC50 [2, 8]: 2160 nM
- HitlevelF ([2]; 2µM): 2
- Selectivity Ratio M [3]: 1.34
- Average inhibition male (%) [3, 4]: 69.9%
- % inhibition male (individual replicates) R1 [3, 5]: 72.9%
- % inhibition male (individual replicates) R3 [3, 6]: 51.6%
- % inhibition male (individual replicates) R4 [3, 7]: 76.9%
- IC50 [3, 9]: 1510 nM
- HitlevelM ([3]; 2µM): 4

SMILES: CCCCNS(=O)(=O)c1ccc(NC(=O)c2cc([N+](=O)[O-])ccc2Cl)cc1 [TC52]
- DGFA Tox50 HepG2 ([1]; HepG2 value reported with the DGFA screen): 100 µM
- Mean TOX [1]: 100.00 µM
- Cytotox ratio Pf Female [2]: 13.2
- IC50 ([2]; this study, read-out: Pf DGFA IC50 FEM): 7560 nM
- Cytotox ratio Pf Male [3]: 270.3
- IC50 [3, 10]: 370 nM

SMILES: CC(C)S(=O)(=O)N1CCN(Cc2ccc3c(c2)nc(NC(=O)c2ccsc2)n3C[C@H](O)c2ccccc2)CC1 [TCMDC-138569]
- Tox50 [1]: 8.48 µM
- Selectivity ratio F [2]: 0.85
- inhibition at 2 µM [2, 11]: 9.7%
- inhibition at 2 µM [2, 12]: 10.7%
- inhibition at 2 µM [2, 13]: -0.7%
- inhibition at 2 µM [2, 14]: -17.5%
- inhibition at 2 µM [2, 15]: 46.4%
- IC50 [2, 16]: > 10000 nM
- HitlevelF ([2]; 2µM): 0
- Selectivity Ratio M [3]: 20.83
- inhibition at 2 µM [3, 17]: 67.3%
- inhibition at 2 µM [3, 18]: 77.8%
- inhibition at 2 µM [3, 19]: 73.7%
- inhibition at 2 µM [3, 20]: 62.3%
- inhibition at 2 µM [3, 21]: 55.6%
- IC50 [3, 22]: 410 nM
- HitlevelM ([3]; 2µM): 4

SMILES: CCN(CC)CCOc1ccc(C(O)(C#CC(O)(c2ccc(C)cc2)c2ccc(OCCN(CC)CC)cc2)c2ccc(C)cc2)cc1 (centres unmarked) [TCMDC-137198]
- Tox50 [1]: 2.63 µM
- Selectivity ratio F [2]: 0.55
- Average inhibition female (%) [2, 4]: 31.2%
- % inhibition female (individual replicates) R1 [2, 5]: 31.1%
- % inhibition female (individual replicates) R3 [2, 6]: 8.3%
- % inhibition female (individual replicates) R4 [2, 7]: 48.8%
- IC50 [2, 8]: 4730 nM
- HitlevelF ([2]; 2µM): 0
- Selectivity Ratio M [3]: 2.02
- Average inhibition male (%) [3, 4]: 80.0%
- % inhibition male (individual replicates) R1 [3, 5]: 79.9%
- % inhibition male (individual replicates) R3 [3, 6]: 84.8%
- % inhibition male (individual replicates) R4 [3, 7]: 81.8%
- IC50 [3, 9]: 1300 nM
- HitlevelM ([3]; 2µM): 4

SMILES: CS(=O)(=O)O.c1ccc2c(CNCCCCCCNCc3c(OCC4CC4)ccc4ccccc34)c(OCC3CC3)ccc2c1 [TCMDC-137839]
- Tox50 [1]: 3.2 µM
- Average inhibition female (%) [2, 23]: 78.7%
- % inhibition female (individual replicates) R1 [2, 24]: 59.7%
- % inhibition female (individual replicates) R3 [2, 25]: 91.2%
- % inhibition female (individual replicates) R4 [2, 26]: 88.3%
- Selectivity ratio F [2]: 1.36
- IC50 [2, 8]: 2360 nM
- Average inhibition male (%) [3, 23]: 95.2%
- % inhibition male (individual replicates) R1 [3, 24]: 96.4%
- % inhibition male (individual replicates) R3 [3, 25]: 98.9%
- % inhibition male (individual replicates) R4 [3, 26]: 103.0%
- Selectivity Ratio M [3]: 2.29
- IC50 [3, 9]: 1400 nM

SMILES: Fc1ccc2[nH]c(-c3ccc(-c4ccc(CNCCN5CCNCC5)cc4)cc3)nc2c1.O=C(O)C(F)(F)F [TCMDC-132866]
- Tox50 [1]: 28.84 µM
- Selectivity ratio F [2]: 2.88
- inhibition at 2 µM [2, 11]: 11.4%
- inhibition at 2 µM [2, 12]: 18%
- inhibition at 2 µM [2, 13]: 1.6%
- inhibition at 2 µM [2, 14]: 12.7%
- inhibition at 2 µM [2, 15]: 13.5%
- IC50 [2, 16]: > 10000 nM
- HitlevelF ([2]; 2µM): 0
- Selectivity Ratio M [3]: 12.07
- inhibition at 2 µM [3, 17]: 63.5%
- inhibition at 2 µM [3, 18]: 59%
- inhibition at 2 µM [3, 19]: 70.4%
- inhibition at 2 µM [3, 20]: 32.6%
- inhibition at 2 µM [3, 21]: 92.2%
- IC50 [3, 22]: 2390 nM
- HitlevelM ([3]; 2µM): 3

SMILES: CC(C)S(=O)(=O)N1CCN(Cc2ccc3c(c2)nc(NC(=O)c2ccsc2)n3C[C@H](O)c2ccccc2)CC1 [TC25]
- Mean TOX [1]: 8.48 µM
- Cytotox ratio Pf Female [2]: 0.848
- Cytotox ratio Pf Male [3]: 20.7
- IC50 [3, 10]: 410 nM

SMILES: COc1ccc(CCNCCCCCCNCCc2ccc(Cl)c3ccccc23)cc1OC.Cl [TCMDC-131270]
- Tox50 [1]: 4.03 µM
- Average inhibition female (%) [2, 23]: 44.5%
- % inhibition female (individual replicates) R1 [2, 24]: 48.1%
- % inhibition female (individual replicates) R3 [2, 25]: 32.3%
- % inhibition female (individual replicates) R4 [2, 26]: 35.6%
- Selectivity ratio F [2]: 0.76
- IC50 [2, 8]: 5300 nM
- Average inhibition male (%) [3, 23]: 92.0%
- % inhibition male (individual replicates) R1 [3, 24]: 90.1%
- % inhibition male (individual replicates) R4 [3, 26]: 89.1%
- Selectivity Ratio M [3]: 2.16
- IC50 [3, 9]: 1870 nM

SMILES: Cc1cccc2nc(-c3ccc(-c4cccc(CNCCN5CCNCC5)c4)cc3)[nH]c12.O=C(O)C(F)(F)F [TCMDC-132867]
- Tox50 [1]: 24.28 µM
- HitlevelF ([2]; 2µM, 24h preincubation): 1
- Selectivity ratio F [2]: 2.66
- inhibition at 2 µM ([2]; Plasmodium falciparum, 2µM, 24h preincubation with gametocytes prior to induction of gametogenesis, average of replicates, read-out: Average inhibition female (%)): 20.3%
- inhibition at 2 µM ([2]; Plasmodium falciparum, 2µM, 24h preincubation with gametocytes prior to induction of gametogenesis, replicate R1, read-out: % inhibition female (individual replicates) R1): 12%
- inhibition at 2 µM ([2]; Plasmodium falciparum, 2µM, 24h preincubation with gametocytes prior to induction of gametogenesis, replicate R2, read-out: % inhibition female (individual replicates) R2): 8.9%
- inhibition at 2 µM ([2]; Plasmodium falciparum, 2µM, 24h preincubation with gametocytes prior to induction of gametogenesis, replicate R3, read-out: % inhibition female (individual replicates) R3): 0.36%
- inhibition at 2 µM ([2]; Plasmodium falciparum, 2µM, 24h preincubation with gametocytes prior to induction of gametogenesis, replicate R4, read-out: % inhibition female (individual replicates) R4): 60%
- IC50 [2, 16]: 9110 nM
- HitlevelM ([3]; 2µM, 24h preincubation): 3
- Selectivity Ratio M [3]: 12.97
- inhibition at 2 µM ([3]; Plasmodium falciparum, 2µM, 24h preincubation with gametocytes prior to induction of gametogenesis, average of replicates, read-out: Average inhibition male (%)): 46.3%
- inhibition at 2 µM ([3]; Plasmodium falciparum, 2µM, 24h preincubation with gametocytes prior to induction of gametogenesis, replicate R1, read-out: % inhibition male (individual replicates) R1): 51.3%
- inhibition at 2 µM ([3]; Plasmodium falciparum, 2µM, 24h preincubation with gametocytes prior to induction of gametogenesis, replicate R2, read-out: % inhibition male (individual replicates) R2): 52.2%
- inhibition at 2 µM ([3]; Plasmodium falciparum, 2µM, 24h preincubation with gametocytes prior to induction of gametogenesis, replicate R3, read-out: % inhibition male (individual replicates) R3): 9.9%
- inhibition at 2 µM ([3]; Plasmodium falciparum, 2µM, 24h preincubation with gametocytes prior to induction of gametogenesis, replicate R4, read-out: % inhibition male (individual replicates) R4): 71.6%
- IC50 [3, 22]: 1870 nM

SMILES: COc1ccc(Nc2ncc(C#N)c(Nc3ccccc3C(N)=O)n2)cc1N1CCN(C)CC1.Cl [TCMDC-134117]
- Tox50 [1]: 9.58 µM
- Selectivity ratio F [2]: 0.96
- inhibition at 2 µM ([2]; Plasmodium falciparum, 2µM, 24h preincubation with gametocytes, average of replicates, read-out: Average inhibition female (%)): -4.3%
- inhibition at 2 µM ([2]; Plasmodium falciparum, 2µM, 24h preincubation with gametocytes, replicate R1, read-out: % inhibition female (individual replicates) R1): -4.1%
- inhibition at 2 µM ([2]; Plasmodium falciparum, 2µM, 24h preincubation with gametocytes, replicate R2, read-out: % inhibition female (individual replicates) R2): -6.5%
- inhibition at 2 µM ([2]; Plasmodium falciparum, 2µM, 24h preincubation with gametocytes, replicate R3, read-out: % inhibition female (individual replicates) R3): -13.1%
- inhibition at 2 µM ([2]; Plasmodium falciparum, 2µM, 24h preincubation with gametocytes, replicate R4, read-out: % inhibition female (individual replicates) R4): 6.5%
- IC50 [2, 16]: > 10000 nM
- Selectivity Ratio M [3]: 100.74
- inhibition at 2 µM ([3]; Plasmodium falciparum, 2µM, 24h preincubation with gametocytes, average of replicates, read-out: Average inhibition male (%)): 97.4%
- inhibition at 2 µM ([3]; Plasmodium falciparum, 2µM, 24h preincubation with gametocytes, replicate R1, read-out: % inhibition male (individual replicates) R1): 98.2%
- inhibition at 2 µM ([3]; Plasmodium falciparum, 2µM, 24h preincubation with gametocytes, replicate R2, read-out: % inhibition male (individual replicates) R2): 100%
- inhibition at 2 µM ([3]; Plasmodium falciparum, 2µM, 24h preincubation with gametocytes, replicate R3, read-out: % inhibition male (individual replicates) R3): 93.5%
- inhibition at 2 µM ([3]; Plasmodium falciparum, 2µM, 24h preincubation with gametocytes, replicate R4, read-out: % inhibition male (individual replicates) R4): 98%
- IC50 [3, 22]: 100 nM

Source: paper PMC10584170, “Machine learning-based phenotypic imaging to characterise the targetable biology of Plasmodium falciparum male gametocytes for the development of transmission-blocking antimalarials” (PLOS Pathogens, 2023)
